Test results published in patent publication US11285192B2, “Formulation including a combination of beta-endorphin and adrenocorticotropic hormone” (Adamis Pharmaceuticals Corporation, priority 2019, dated 2022).
Structures can show the parent of a compound that is named as a salt.

What was measured:
[1] = tested on: EAE induced in SJL mice by PLP139-151/CFA immunization; experiment: EAE therapeutic model repeated with greater doses, FTY720 reference (Example 4); type: in vivo, mouse
Protocol: To further explore the effect of dosage, the model was repeated, essentially as described in Example 3, using greater doses, specifically 53 μg of ACTH+27 μg of β-endorphin (low dose), and 128 […] of ACTH+64 μg of β-endorphin (high dose). Additionally FTY720 (fingolimod, an FDA-approved drug for the treatment of multiple sclerosis) was used as a reference (positive control) treatment instead of prednisolone, which had not shown strong efficacy in Example 3. FTY720 is one of the most efficacious drugs in both EAE and MS. Immunization was on Day 0, treatment started on Day 20, and the mice were observed through Day 42.
Histological analysis confirmed the clinical findings (Table 9). Histologic readouts were inflammatory foci per section, demyelination (based on anti-myelin basic protein (MBP) staining), and apoptotic cells per section. […] A low number of inflammatory infiltrates confirms absence of both clinical and subclinical inflammation in the CNS. Histological findings in the high dose test group were generally similar to the FTY720 reference group.

[2] = tested on: EAE induced by PLP139-151/CFA Emulsion PTX; experiment: EAE prophylactic model, treatment from immunization, with pertussis toxin (Example 5); type: in vivo, mouse; details: 3 mg/kg p.o. daily
Protocol: The efficacy of the combination of ACTH and β-endorphin was also tested in a prophylactic model of EAE. In contrast with the therapeutic model used above, in which treatment is initiated only after EAE onset and recovery from the first wave of the disease, in the prophylactic model, treatment is initiated at the time of immunization and the mice are followed for only 3 weeks. Additionally, pertussis toxin (PTX) is used as an additional adjuvant in the immunization, producing a more sever first wave of disease with slower recovery.
Mice were injected subcutaneously at four sites in the back with 0.05 mL of the emulsion component of HOOKE KIT™ PLP139-151/CFA Emulsion PTX (catalog number EK-2120; Hooke Laboratories, Lawrence Mass.). Two sites of injection were in the upper back approximately 1 cm caudal of the neck line. The other two sites were in the lower back approximately 2 cm cranial of the base of the tail. Two hours later the pertussis toxin component of the kit was administered intraperitoneally. A 30 ng dose of PTX was used to attain optimal disease severity. Mice were administered vehicle or 128 μg ACTH+64 μg β-endorphin by subcutaneous injection every 2nd day, as a negative control and test treatment, respectively. As reference treatment (positive control) mice received 3 mg/kg FTY720 daily by oral administration. There were 12 mice in each of these three groups. The vehicle and test treatment groups were dosed from Day 0 through Day 18 (the last dose in the test treatment group was 88 μg ACTH+44 μg β-endorphin due to lab mishap). The reference treatment group was dosed from Day 0 through Day 19. Clinical scoring was as presented in Table 4 (above) beginning on Day 7 and continuing through Day 20.

[3] = tested on: EAE induced in SJL mice by PLP139-151/CFA immunization; experiment: EAE late therapeutic model of relapsing-remitting multiple sclerosis, treatment from Day 20 (Example 3); type: in vivo, mouse
Protocol: The effect of administration of two dosages of ACTH and β-endorphin on severity and relapse in EAE was evaluated. EAE was induced in SJL mice by PLP139-151/CFA immunization on Day 0. Treatment was late therapeutic, starting on Day 20 after immunization for each mouse. Mice were observed through the end of the study, Day 42 after immunization. Four groups of 20 mice each received one of the following treatments: vehicle (a negative control); 10 mg/kg oral prednisolone daily (reference treatment); 32 μg ACTH+16 μg endorphin by subcutaneous injection, every 2nd day (low dose); or 64 μg ACTH+32 μg β-endorphin by subcutaneous injection, every 2nd day (high dose).
Mice were injected subcutaneously at four sites in the back with emulsion containing PLP139-151 (native sequence) from HOOKE KIT™ PLP139-151/CFA Emulsion, catalog number EK-0120 (Hooke Laboratories, Lawrence Mass.). Two sites of injection were in the upper back approximately 1 cm caudal of the neck line. The other two sites were in the lower back approximately 2 cm cranial of the base of the tail. The injection volume was 0.05 mL at each site. Even without treatment, most mice recover spontaneously after the first wave of disease. In the SJL model, EAE develops 10-15 days after immunization in 90-100% of immunized mice. The first wave of EAE lasts several days and most mice fully or almost fully recover from this first wave. After a disease-free period, which can last from one day to several months, most mice relapse. During the first 5-7 weeks after immunization, 50-100% of mice will develop a relapse. Each wave of paralysis results in body weight loss at onset, most of which is regained at recovery from the wave. The greatest weight loss is during the first wave of EAE. During the chronic phase of disease, the average EAE body weight is relatively stable, with normal slow increase with age. Since individual mice experience relapses at different times, only a few mice in each group are acutely sick at any given time after the first wave of EAE. Therefore, significant differences in relative body weight between groups are often not found after the first wave of disease in this model. In the vehicle treated group, disease developed as expected for this model. Five (5) mice were euthanized on Day 30 for analysis. Relapse occurred in 7 out of the 15 remaining mice, which were followed to Day 42, with typical course and severity of disease.
100 EAE induced mice were initially considered a single group and were scored daily starting on Day 9 after immunization. […]
Treatment started on the day of group assignment (Day 20 after immunization). […] EAE score was determined daily by a person unaware of both treatment and of previous scores for each mouse. Weight was measured 3 times a week. […]

[4] = tested on: EAE induced by PLP139-151/CFA Emulsion PTX; details: past experience with this model; cited from earlier work
[5] = per one mg of ACTH, based on rat potency testing; cited from earlier work

## CCCCCCCCc1ccc(CCC(N)(CO)CO)cc1 [FTY720, fingolimod]
[1]; 1 mg/kg p.o. QD
  Apoptotic cells/section ± SD: 0.3 ± 0.4 cells/section
  Demyelination (anti-MBP) ± SD: 0.1 ± 0.2
[1]; 1 mg/kg p.o. QD from Day 20
  Incidence of relapse: 12.5%
  MMS of relapse period ± SD (Days 20-42): 1.94 ± 0.50
[1]; 1 mg/kg p.o. QD from Day 20, % of starting weight
  End % body weight ± SD: 97.65 ± 5.3%
[1]; 1 mg/kg p.o. QD from Day 20, Day 42
  End score ± SD: 1.06 ± 0.62
[1]; 1 mg/kg p.o. QD, spinal cord histology
  Inflammatory foci/section ± SD: 0.5 ± 0.4 foci/section
[2]; Day 0-19
  End % body weight ± SD: 98.3% ± 7.8%
  MMS ± SD: 0.92 ± 1.16
[2]; Day 0-19, Day 20
  End score ± SD: 0.79 ± 1.01
[2]; Day 0-19, cannot be calculated if ≤50% of mice developed disease
  Median day of onset (all mice): >20.0^1
[2]; Day 0 through Day 19, scored through Day 20
  EAE incidence (%): 41.7%

## C[C@]12C=CC(=O)C=C1CC[C@@H]1[C@@H]2[C@@H](O)C[C@@]2(C)[C@H]1CC[C@]2(O)C(=O)CO [Prednisolone, prednisolone]
[3]; 10 mg/kg p.o. daily
  Change in body weight versus vehicle control (FIG. 2): statistically significant loss of weight versus the vehicle control
[3]; 10 mg/kg p.o. daily from Day 20, mean maximal score
  MMS of relapse period ± SD (Days 25-42): 2.07
[3]; 10 mg/kg p.o. daily, microglial activation, % of total spinal cord area
  Iba1 ± SD (% of area): 4.0 ± 1.2 % of area
[3]; reference treatment 10 mg/kg p.o. daily
  Mean clinical score over the course of the study (FIG. 1), compared to vehicle: more moderate benefit

## COC(=O)/C=C/C(=O)OC [TECFIDERA®, dimethyl fumarate]
[4]
  Complete suppression of development of EAE: neither COPAXONE® (glatiramer acetate injection) nor TECFIDERA® (dimethyl fumarate) completely suppressed development of EAE

## ACTH: 39 amino acid peptide, adrenocorticotropic hormone (SYSMEHFRWGKPVGKKRRPVKVYPNGAEDESAEAFPLEF; Corticotropin; UniProt P01189 138-176, looked up)
[5]
  Potency of ACTH in units: about 150 units
